Measured values from patent US7148254B2, “2-Phenylbenzofuran derivatives, a process for preparing them, and their use” (Sanofi-Aventis Deutschland GmbH, priority 2003, dated 2006).

Assays:
[1] = Physicochemical properties: solubility; settings: organic solvents
[2] = Physicochemical properties: stability
[3] = target: N-acetylglucosamine-1-phosphate uridyltransferase (GlmU) (Escherichia coli, UniProt P0ACC7); experiment: GlmU inhibition, biochemical test (384-plate format, DTNB, absorption at 405 nm); parameters: species or system bacterial; settings: 60 minutes of incubation at 30° C.; read-out: inhibition constant, IC50, inhibitory effect on the enzyme GlmU
N-acetylglucosamine-1-phosphate uridyltransferase (GlmU), sequence (P0ACC7 whole entry): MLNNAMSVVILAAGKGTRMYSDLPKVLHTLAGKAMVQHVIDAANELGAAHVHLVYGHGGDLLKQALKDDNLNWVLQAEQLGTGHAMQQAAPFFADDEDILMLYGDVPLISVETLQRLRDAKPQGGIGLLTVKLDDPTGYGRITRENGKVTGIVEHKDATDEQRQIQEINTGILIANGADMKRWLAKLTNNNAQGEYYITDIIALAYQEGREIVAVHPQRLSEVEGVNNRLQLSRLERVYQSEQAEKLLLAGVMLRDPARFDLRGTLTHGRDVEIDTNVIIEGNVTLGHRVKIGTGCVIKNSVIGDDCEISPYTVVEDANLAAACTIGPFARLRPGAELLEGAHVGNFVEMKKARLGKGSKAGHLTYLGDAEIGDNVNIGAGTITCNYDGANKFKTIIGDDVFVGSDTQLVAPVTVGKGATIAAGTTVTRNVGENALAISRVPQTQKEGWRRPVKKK
Method: The inhibition of the GlmU can be determined in a biochemical test using the following method:
The assay was carried out in a 384-plate format. The reaction volume was 40 μl per test. The reaction mixture contained 10 μl of test substance and 15 μl of substrate solution consisting of acetylCoA and D-glucosamine-1-phosphate. The enzyme reaction was started by adding 15 μl of GlmU enzyme solution. After 60 minutes of incubation at 30° C., the reaction was stopped by adding 10 μl of developer reagent (DTNB dissolved in guanidine). The plates were then centrifuged (1 min, 1000 rpm) and stored for a further 45 minutes at room temperature before the absorption was read at 405 nm in a photometer. In order to be able to calculate the inhibitory activity of the test compounds, positive controls (signal with GlmU) and negative controls (signal without GlmU) were included on each plate. In order to exclude falsely positive samples, which could be caused by nonspecific substance effects (e.g. color), blank plates, which contained the substances but no GlmU, were included in parallel with the test plates. After correction for the blanks, the inhibitory activities of the substances were calculated in accordance with the following formula: Inhibition(%)=100×[1−(OD405 nm substance/OD405 nm positive control)]

Cc1c(O)c(O)c(O)c(C=O)c1-c1cc2c(C=O)c(C)c(O)c(O)c2o1 [(II)]
solubility [1]: soluble in medium-polar and polar organic solvents | stability ([2]; neutral and mildly acid medium): Stable in neutral and mildly acid medium | stability ([2]; strongly acidic and alkaline solutions, under the influence of oxygen): unstable in strongly acidic and alkaline solutions and under the influence of oxygen | IC50 [3]: 1000 nM
